# Measured values from patent publication US11253589B2, “Modulation of the immune response” (priority 2007, dated 2022).
# Tests used:
# C57BL/6 mice = test: EAE in recipient mice after transfer of CD4+ T cells from treated mice; format: in vivo, mouse
# From the text: To identify the mechanism responsible for the decreased proliferation to MOG35-55 in TCDD-treated animals shown in FIG. 4D, the CD4^+CD25^+ Treg population was depleted with magnetic beads. […] The control of the pathogenic T cell response was mediated by CD4^+CD25^+ Treg, their depletion abrogated the protective effect of the transferred cells (P<0.001, two-way ANOVA, n=4; FIG. 5C).
# To confirm that the protective effect of TCDD on EAE was Treg mediated we depleted the natural Treg with antibodies to CD25 prior to TCDD treatment. […] This protective effect was lost when CD4^+CD25^+ T cells were depleted, see FIG. 5h and Table 5.
# The control of the pathogenic T cell response was mediated by CD4^+CD25^+ Treg, their depletion from the transferred population abrogated the protective effect of the transferred cells. Thus, the Treg induced by the activation of AHR with ITE inhibit the progression of EAE.
# CD4+Foxp3+ Treg = CD4+Foxp3+ Treg quantified by FACS in treated mice; format: in vivo, mouse; set-up: number of CD4+FoxP3+ Treg / number of CD4+Foxp3+ T cells / levels of LAP+ regulatory T cells / number of CD4+FoxP3:GFP+ Treg in blood and spleen: dose or concentration left out as unconfirmed
# CD4+Foxp3:GFP+ Treg = test: Treg suppressive activity assay; format: cell-based, mouse
# Method: Cells were cultured in serum-free X-VIVO 20™ media (BioWhittaker, Walkersville, Md., USA) for 72 hours. During the last 16 hours, cells were pulsed with 1 μCi of [^3H]thymidine (PerkinElmer, Waltham, Mass., USA) followed by harvesting on glass fiber filters and analysis of incorporated [^3H]thymidine in a beta-counter (1450 Microbeta, Trilux, PerkinElmer). Alternatively, culture supernatants were collected […] activation and the cytokine concentration was determined by ELISA using antibodies for IFN-γ, IL-17, IL-4, IL-10 from BD Biosciences and antibodies to TGF-β from R&D Systems. For suppression assays, MACS purified CD4^+CD25^− T cells from naïve C57BL/6 mice (1-5×10^4 cells/well) were stimulated with antibodies to CD3 and C57BL/6 irradiated spleen cells (0.3-1.5×10^4 cells/well) for 3 days in the presence of different ratios of CD4^+ GFP^+ retrovirus-transduced T cells.
# To investigate the active suppression of MOG35-55-specific Teff by Treg, Foxp3^gpf knock in mice were immunized with MOG35-55/CFA, treated daily with intreaperitoneal ITE ([…]) and the recall response to MOG35-55 and a mitogenic antibody to CD3 antibody was studied on FACS-sorted CD4^+ T cells and CD4^+ FoxP3:GFP− Teff. […] This suppressed response to MOG35-55 was lost upon removal of the CD4^+FoxP3:GFP^+ Treg (FIG. 26). To further analyze the MOG35-55-specific suppressive activity of the CD4^+FoxP3:GFP^+ Treg, they were cocultured at different ratios and assayed for the suppression of MOG35-55 or anti-CD3-triggered proliferation of CD4^+FoxP3:GFP− Teff form 2D2 mice, which harbor a TCR specific for MOG35-55.
# AHR = biological target: T1, AHR (Homo sapiens, UniProt P35869); conditions: cited from earlier work
# T1 sequence (P35869 11-848): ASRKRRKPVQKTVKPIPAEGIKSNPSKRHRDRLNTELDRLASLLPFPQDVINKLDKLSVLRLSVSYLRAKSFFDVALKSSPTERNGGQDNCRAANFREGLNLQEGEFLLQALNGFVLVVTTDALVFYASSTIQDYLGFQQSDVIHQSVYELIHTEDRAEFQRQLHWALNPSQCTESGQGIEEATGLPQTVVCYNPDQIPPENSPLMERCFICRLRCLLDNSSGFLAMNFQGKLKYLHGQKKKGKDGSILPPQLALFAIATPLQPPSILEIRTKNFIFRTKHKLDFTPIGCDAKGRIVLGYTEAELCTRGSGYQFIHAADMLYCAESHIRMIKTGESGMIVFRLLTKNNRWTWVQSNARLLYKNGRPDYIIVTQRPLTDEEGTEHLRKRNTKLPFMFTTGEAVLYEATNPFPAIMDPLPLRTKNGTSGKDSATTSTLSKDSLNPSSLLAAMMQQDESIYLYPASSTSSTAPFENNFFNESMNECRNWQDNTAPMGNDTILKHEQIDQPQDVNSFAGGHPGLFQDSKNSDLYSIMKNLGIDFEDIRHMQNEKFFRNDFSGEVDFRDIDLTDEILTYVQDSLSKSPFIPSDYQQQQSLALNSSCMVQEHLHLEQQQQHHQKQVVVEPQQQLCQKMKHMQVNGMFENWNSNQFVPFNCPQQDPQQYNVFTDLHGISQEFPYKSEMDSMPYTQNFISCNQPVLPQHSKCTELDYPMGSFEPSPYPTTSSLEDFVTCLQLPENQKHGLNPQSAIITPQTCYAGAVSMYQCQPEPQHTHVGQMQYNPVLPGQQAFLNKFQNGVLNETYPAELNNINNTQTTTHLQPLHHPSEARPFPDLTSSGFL
# CD11c+ and CD11b+ cells = test: MHC class II expression on CD11c+ and CD11b+ cells by FACS; format: in vivo; conditions: ITE 200 mg/mouse ip daily or TCDD 1 mg/mouse ip on day 0; spleens 10 days after MOG35-55/CFA
# From the text: AHR is known to be expressed by antigen presenting cells (APC) such as dendritic cells (CD11c^+) and macrophages (CD11b^+) (Vorderstrasse and Kerkvliet, Toxicol Appl Pharmacol. 171, 117 (2001); Laupeze et al., J Immunol. 168, 2652 (2002); Hayashi et al., Carcinogenesis. 16, 1403 (1995); Komura et al., Mol Cell Biochem. 226, 107 (2001)). To analyze the effects that AHR activation by ITE might have on different APC populations, which can potentially influence the generation of Teff and Treg cells, we studied the effect of ITE and TCDD treatment on MHC class II expression by as dendritic cells (CD11c^+) and macrophages (CD11b). C57BL/6 mice were treated with ITE (200 mg/mouse administered ip, daily) or TCDD (1 mg/mouse administered ip on day 0) and immunized them with […] of MOG35-55 in CFA. Spleens were prepared 10 days later and […] expression was investigated on CD11b^+ and CD11c^+ cells by FACS.
# [1] = ITE ip daily, MOG35-55/CFA, spleens
# [2] = ITE orally daily, MOG35-55/CFA, spleens
# [3] = recipients of 5 × 10^6 CD4+ T cells from TCDD treated mice
# [4] = recipients of 5 × 10^6 CD4+CD25- T cells from TCDD treated mice
smiles,measurement,setting,value
"COC(=O)c1csc(C(=O)c2c[nH]c3ccccc23)n1 [ITE, 2-(1′H-indole-3′-carbonyl)-thiazole-4-carboxylic acid methyl ester]",protection from EAE by transfer of CD4+ T cells,C57BL/6 mice; CD4+ T cells from mice treated with oral or intraperitoneal ITE,Protection from EAE could be transferred
same,number of CD4+FoxP3:GFP+ Treg in blood and spleen,"CD4+Foxp3+ Treg; Foxp3gfp knock in mice, ITE ip daily, ten days after MOG35-55/CFA",significant increase in the number
same,levels of LAP+ regulatory T cells,CD4+Foxp3+ Treg; [1],did lead to significant alterations
same,number of CD4+FoxP3+ Treg,CD4+Foxp3+ Treg; [1],significant increase in the number
same,levels of LAP+ regulatory T cells,CD4+Foxp3+ Treg; [2],did lead to significant alterations
same,number of CD4+FoxP3+ Treg,CD4+Foxp3+ Treg; [2],significant increase in the number
same,MOG35-55-specific suppressive activity of CD4+ FoxP3:GFP+ Treg,"CD4+Foxp3:GFP+ Treg; Treg from ITE-treated mice, 2D2 Teff as responders",increased MOG35-55-specific suppressive activity
same,AHR affinity,AHR,high affinity AHR ligands
same,CD11b+ MHC class II expression,CD11c+ and CD11b+ cells,significant increase
same,CD11c+ MHC class II expression,CD11c+ and CD11b+ cells,significant decrease
"Clc1cc2c(cc1Cl)Oc1cc(Cl)c(Cl)cc1O2 [TCDD, 2,3,7,8 tetrachlorodibenzo-p-dioxin]",Mean day of onset (Mean ± SD),C57BL/6 mice; [3],13.3 ± 0.6 days
same,Mean maximum score (mean ± SD),C57BL/6 mice; [3],0.7 ± 0.8
same,Mean day of onset (Mean ± SD),C57BL/6 mice; [4],11.0 ± 0.0 days
same,Mean maximum score (mean ± SD),C57BL/6 mice; [4],2.6 ± 1.8
same,development of EAE,C57BL/6 mice; transfer of 5×10^6 CD4+ T cells from TCDD-treated mice,significantly inhibited the development of EAE
same,number of CD4+FoxP3+ Treg,"CD4+Foxp3+ Treg; TCDD ip, draining lymph nodes, without immunization",small increase
same,frequency of CD4+Foxp3+ T cells,"CD4+Foxp3+ Treg; TCDD ip, spleen, 21 days after EAE induction",significant increase in the frequency
same,rebound in Treg numbers,"CD4+Foxp3+ Treg; natural Treg depleted with antibodies to CD25 prior to TCDD treatment, day 7",faster rebound in their Treg numbers
same,number of CD4+Foxp3+ T cells,"CD4+Foxp3+ Treg; single TCDD ip followed by MOG35-55/CFA immunization, draining lymph nodes 10 days later",significant increase
same,MOG35-55-specific suppressive activity of CD4+Foxp3:GFP+ T cells,CD4+Foxp3:GFP+ Treg; Treg expanded in vivo by TCDD administration and MOG35-55 immunization,increased MOG35-55-specific suppressive activity
same,proliferation and suppressive activity of CD4+Foxp3:GFP+ Treg purified from naïve mice,CD4+Foxp3:GFP+ Treg; stimulation with antibodies to CD3 and CD28 and TCDD,did not proliferate and did not show increased suppressive activity
same,AHR affinity,AHR,high affinity AHR ligand
same,CD11b+ MHC class II expression,CD11c+ and CD11b+ cells,significant increase
same,CD11c+ MHC class II expression,CD11c+ and CD11b+ cells,significant decrease
